Laboratory results published in patent US6395737B1, “Malonic acid derivatives, processes for their preparation, for their use and pharmaceutical compositions containing them” (Aventis Pharma Deutschland GmbH, priority 1999, dated 2002).
Structures can show the parent of a compound that is named as a salt.

The molecules below were run against factor Xa (Homo sapiens, UniProt P00742) (assay: In vitro Factor Xa assay (Test 1a), chromogenic substrate S-2765). Details: Factor Xa inhibitory activity; Ki from IC50 corrected for substrate competition; 0.5 nM enzyme, 140 μM S-2765, 25° C.
Sequence of factor Xa (P00742 235-488 limits assumed): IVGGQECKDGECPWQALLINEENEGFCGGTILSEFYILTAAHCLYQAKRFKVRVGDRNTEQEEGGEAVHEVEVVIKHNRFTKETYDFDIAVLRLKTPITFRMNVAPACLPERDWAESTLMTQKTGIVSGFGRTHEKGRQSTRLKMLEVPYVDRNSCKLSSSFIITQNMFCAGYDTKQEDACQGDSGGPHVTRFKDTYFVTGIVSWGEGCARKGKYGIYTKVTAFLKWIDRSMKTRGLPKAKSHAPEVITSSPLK
Sequence of factor Xa (P00742 41-179 partner limits assumed): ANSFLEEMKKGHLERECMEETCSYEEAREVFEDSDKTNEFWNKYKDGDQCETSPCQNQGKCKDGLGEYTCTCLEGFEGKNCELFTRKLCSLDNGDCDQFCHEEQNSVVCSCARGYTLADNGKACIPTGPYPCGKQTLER
Type: biochemical
Set-up: purchased Enzyme Research Laboratories, Inc; South Bend, Ind
Description: The ability of a compound of formula I to inhibit factor Xa, thrombin, plasmin, elastase and trypsin may be assessed by determining the concentration of compound of formula I that inhibits enzyme activity by 50% (IC50). Purified enzymes are used in chromogenic assays. To determine the inhibition constant, the IC50 value is corrected for competition with substrate using the formula:
Ki=IC50×(1/{1+((substrate concentration)/substrate Km)})
where Km is the Michaelis-Menten-constant (Y.-C. Chen and W.H. Prusoff, Biochem. Pharmacol. 22: […] (1973), which is incorporated herein by reference).
TBS-PEG buffer (50 mM Tris-Cl, pH 7.8, 200 mM NaCl, 0.05% (w/v) PEG-8000, 0.02% (w/v) NaN3) is used for this assay. The IC50 is determined by combining in appropriate wells of a Costar half-area microtiter plate 25 μl human factor Xa (Enzyme Research Laboratories, Inc.; South Bend, Ind.) in TBS-PEG; 40 μl 10% (v/v) DMSO in TBS-PEG (uninhibited control) or various concentrations of the compound to be tested diluted in 10% (v/v) DMSO in TBS-PEG; and substrate S-2765 (N-benzyloxycarbonyl-D-Arg-Gly-L-Arg-p-nitroanilide; Kabi Pharmacia, Inc.; Franklin Ohio) in TBS-PEG.
The assays are performed by pre-incubating the compound of formula I plus enzyme for 10 min, then the assay is initiated by adding substrate to obtain a final volume of 100 μl. The initial velocity of chromogenic substrate hydrolysis is measured by the change in absorbance at 405 nm using a Bio-tek Instruments kinetic plate reader (Ceres UV900HDi) at 25° C. during the linear portion of the time course (usually 1.5 min after addition of substrate). The concentration of inhibitor that causes a 50% decrease in the rate of substrate hydrolysis is predicted by linear regression after plotting the relative rates of hydrolysis (compared to the uninhibited control) versus the log of the compound of formula I concentration. The enzyme concentration is 0.5 nM and substrate concentration is 140 μM.

| Ki [µM] | Structure (SMILES) |
| --- | --- |
| 0.006 | CN(C)C(=O)C(Cc1ccc(C(=N)N)cc1)C(=O)N[C@H](C(=O)NCc1ccc(C(=N)N)cc1)C1CCCCC1 (mixture of isomers) [Example 4, 2-(R,S)-(4-Carbamimidoyl-benzyl)-N-[(4-carbamimidoyl-benzylcarbamoyl)-(S)-cyclohexyl-methyl]-N′,N′-dimethyl-malonamide Hydrochloric Acid Salt] |
| 0.013 | N=C(N)NCCC[C@H](NC(=O)[C@@H](NC(=O)C(Cc1ccc(C(=N)N)cc1)C(=O)N1CCOCC1)c1ccccc1)C(N)=O (mixture of isomers) [Example 23, 2-(S)-{2-(S)-[2-(R,S)-(4-Carbamimidoyl-benzyl)-3-morpholin-4-yl-3-oxo-propionyl-amino]-2-phenyl-acetylamino}-5-guanidino-pentanoic acid amide trifluoroacetic acid salt] |
| 0.5 | CC(C)(C)[C@H](NC(=O)C(Cc1ccc(C(=N)N)cc1)C(=O)N1CCOCC1)C(=O)N[C@@H](CCCNC(=N)N)C(N)=O (mixture of isomers) [Example 40, 2-(S)-{2-(S)-[2-(R,S)-(4-Carbamimidoyl-benzyl)-3-morpholin-4-yl-3-oxo-propionyl-amino]-3,3-dimethyl-butyrylamino}-5-guanidino-pentanoic acid amide trifluoroacetic acid salt] |
| 0.0062 | N=C(N)NCCC[C@H](NC(=O)[C@@H](NC(=O)C(Cc1ccc(C(=N)N)cc1)C(=O)N1CCOCC1)C1CCCCC1)C(N)=O (mixture of isomers) [Example 41, 2-(S)-{2-(S)-[2-(R,S)-(4-Carbamimidoyl-benzyl)-3-morpholin-4-yl-3-oxo-propionyl-amino]-2-cyclohexyl-acetylamino}-5-guanidino-pentanoic acid amide trifluoroacetic acid salt] |
| 0.19 | N=C(N)NCCC[C@H](NC(=O)[C@H](Cc1ccccc1)NC(=O)C(Cc1ccc(C(=N)N)cc1)C(=O)N1CCOCC1)C(N)=O (mixture of isomers) [Example 43, 2-(S)-{2-(S)-[2-(R,S)-(4-Carbamimidoyl-benzyl)-3-morpholin-4-yl-3-oxo-propionyl-amino]-3-phenyl-propionylamino}-5-guanidino-pentanoic acid amide trisfluoroacetic acid salt] |
| 0.012 | CN(C)C(=O)C(Cc1ccc(C(=N)N)cc1)C(=O)N[C@H](C(=O)N[C@@H](CCCNC(=N)N)C(=O)N1CCN(S(=O)(=O)c2ccc3ccc(Cl)cc3c2)CC1)C1CCCCC1 (mixture of isomers) [Example 45, 2-(R,S)-(4-Carbamimidoyl-benzyl)-N-({1-(S)-[4-(7-chloro-naphthalene-2-sulfonyl)-piperazine-1-carbonyl]-4-guanidino-butylcarbamoyl}-(S)-cyclohexyl-methyl)-N′,N′dimethyl-malonamide hydrochloric acid salt] |
| 0.46 | CN(C)C(=O)C(Cc1ccc(C(=N)N)cc1)C(=O)N[C@H](C(=O)NCC1CCNCC1)C1CCCCC1 (mixture of isomers) [Example 47, 2-(R,S)-(4-Carbamimidoyl-benzyl)-N-{(S)-cyclohexyl-[(piperidin-4-ylmethyl)-carbamoyl]-methyl}-N′,N′-dimethyl-malonamide hydrochloric acid salt] |
| 5.23 | CN(C)C(=O)C(Cc1ccc(C(=N)N)cc1)C(=O)N[C@H](C(=O)NCCc1ccc(Cl)c(Cl)c1)C1CCCCC1 (mixture of isomers) [Example 59, 2-(R,S)-(4-Carbamimidoyl-benzyl)-N-{(S)-cyclohexyl-[2-(3,4-dichloro-phenyl)-ethylcarbamoyl]-methyl}-N′,N′-dimethyl-malonamide acetic acid salt] |
| 0.17 | CN(C)C(=O)C(Cc1ccc(C(=N)N)cc1)C(=O)N[C@H](C(=O)NC(Cc1ccc(C(=N)N)cc1)C(N)=O)C1CCCCC1 (mixture of isomers) [Example 87, 2-(R,S)-(4-Carbamimidoyl-benzyl)-N-{(S)-[2-(4-carbamimidoyl-phenyl)-1-carbamoyl-ethylcarbamoyl]-cyclohexyl-methyl}N′,N′-dimethyl-malonamide acetic acid salt] |
| 0.054 | CN(C)C(=O)C(Cc1ccc(C(=N)N)cc1)C(=O)N[C@H](C(=O)NCCCCNC(=N)N)C1CCCCC1 (mixture of isomers) [Example 88, 2-(R,S)-(4-Carbamimidoyl-benzyl)-N-[(S)-cyclohexyl-(4-guanidino-butyl-carbamoyl)-methyl]-N′,N′-dimethyl-malonamide sulfuric acid salt] |
| 0.96 | CN(C)C(=O)C(Cc1ccc(C(=N)N)cc1)C(=O)N[C@H](C(=O)NC(C(=O)N1CCCC1)c1ccc(NC(=N)N)cc1)C1CCCCC1 (mixture of isomers) [Example 96, 2-(R,S)-(4-Carbamimidoyl-benzyl)-N-{(S)-cyclohexyl-[1-(4-guanidino-phenyl)-2-oxo-2-pyrrolidin-1-yl-ethylcarbamoyl]-methyl}-N′,N′-dimethyl-malonamide hydrochloric acid salt] |
| 0.0035 | N=C(N)NCCCC(NC(=O)C(NC(=O)C(Cc1ccc(C(=N)N)cc1)C(=O)N1CCCCC1)C1CCCCC1)C(N)=O (single isomer, unassigned; less polar) [Example 27] |
| 0.035 | CCC(=N)N1CCC(CNC(=O)C(NC(=O)C(Cc2ccc(C(=N)N)cc2)C(=O)N(C)Cc2ccccc2)C2CCCCC2)CC1 (single isomer, unassigned; less polar) [Example 126] |
| 2 | N=C(N)NCCCC(NC(=O)C(NC(=O)C(Cc1ccc(C(=N)N)cc1)C(=O)N1CCCCC1)C1CCCCC1)C(N)=O (single isomer, unassigned; more polar) [Example 28] |
| 0.006 | CCC(=N)N1CCC(CNC(=O)C(NC(=O)C(Cc2ccc(C(=N)N)cc2)C(=O)N(C)Cc2ccccc2)C2CCCCC2)CC1 (single isomer, unassigned; more polar) [Example 125] |
| 0.78 | CN(C)C(=O)C(Cc1ccc(C(=N)N)cc1)C(=O)NC(C(=O)NCc1cccc(C(N)=O)c1)C1CCCCC1 [Example 69, 2-(R,S)-(4-Carbamimidoyl-benzyl)-N-[((S)-3-carbamoyl-benzylcarbamoyl)-cyclohexyl-methyl]-N′,N′-dimethyl-malonamide hydrochloric acid salt] |
| 0.003 | CN(C)C(=O)[C@@H](Cc1ccc(C(=N)N)cc1)C(=O)N[C@H](C(=O)NCC1CCN(C(=N)N)CC1)C1CCCCC1 [Example 113, 2-(S)-(4-Carbamimidoyl-benzyl)-N-{(S)-[(1-carbamimidoyl-piperidin-4-ylmethyl)-carbamoyl]-cyclohexyl-methyl}-N′,N′-dimethyl-malonamide hydrochloric acid salt, less polar diastereomer] |

| Structure (SMILES) | Ki [µM] |
| --- | --- |
| N=C(N)NCCC[C@H](NC(=O)[C@@H](NC(=O)C(Cc1ccc(C(=N)N)cc1)C(=O)N1CCCC1C(=O)O)C1CCCCC1)C(N)=O (single isomer, unassigned; less polar) [Example 35] | 0.084 |
| N=C(N)c1ccc(CNC(=O)[C@@H](NC(=O)C(Cc2ccc(C(=N)N)cc2)C(=O)NCc2ccccc2)C2CCCCC2)cc1 (single isomer, unassigned; less polar) [Example 101] | 0.037 |
| CN(Cc1ccccc1)C(=O)[C@@H](Cc1ccc(C(=N)N)cc1)C(=O)N[C@H](C(=O)NCC1CCN(C(=N)N)CC1)C1CCCCC1 (single isomer, unassigned; less polar) [Example 112] | 0.001 |
| CCOC(=O)C(Cc1cccc2ccccc12)NC(=O)[C@@H](NC(=O)C(Cc1ccc(C(=N)N)cc1)C(=O)N(C)Cc1ccccc1)C1CCCCC1 (single isomer, unassigned; more polar) [Example 107] | 2.76 |
| CCCC[C@H](NC(=O)C(Cc1ccc(C(=N)N)cc1)C(=O)N1CCOCC1)C(=O)N[C@@H](CCCNC(=N)N)C(N)=O (stereo partly drawn) [Example 16, 2-(S)-[2-(R,S)-(4-Carbamimidoyl-benzyl)-3-morpholin-4-yl-3-oxo-propionyl-amino]-hexanoic acid(1-(S)-carbamoyl-4-guanidino-butyl)-amide trifluoroacetic acid salt] | 0.026 |
| CN(C)C(=O)C(Cc1ccc(C(=N)N)cc1)C(=O)N[C@H](C(=O)NCc1cccc(CN)c1)C1CCCCC1 (stereo partly drawn) [Example 63, N-[((S)-3-Aminomethyl-benzylcarbamoyl)-cyclohexyl-methyl]-2-(R,S)-(4-carbamimidoyl-benzyl)-N′,N′-dimethyl-malonamide trifluoroacetic acid salt] | 2.36 |
| CC(=O)NCc1cccc(CNC(=O)[C@@H](NC(=O)C(Cc2ccc(C(=N)N)cc2)C(=O)N(C)C)C2CCCCC2)c1 (stereo partly drawn) [Example 67, N-{[(S)-3-(Acetylamino-methyl)-benzylcarbamoyl]-cyclohexyl-methyl}-2-(R,S)-(4-carbamimidoyl-benzyl)-N′,N′-dimethyl-malonamide trifluoroacetic acid salt] | 0.26 |
